Data published in US12410171B2, “Tropomyosin receptor kinase (TRK) degradation compounds and methods of use” (Cullgen (Shanghai), Inc., priority 2020, dated 2025).

Test system: KM12 cells
Assay: KM12 cell viability (CellTiter-Glo)
Type: cell-based
Conditions: Homo sapiens, 72 h; KM12 cell viability, 11-point 3-fold serial dilution, 3 days, CellTiter-Glo; read-out: IC50
Experimental: KM12 or H358 cells were treated with 1000 nM CPD-053 following an 8-point 3-fold serial dilution for 3 days.
KM12 cells seeded in 96-well plates were treated with heterobifunctional compounds following a 11-point 3-fold serial dilution for 3 days.
KM12, H358, HEL, SU-DHL-1 and other cells were cultured at 37° C. with 5% CO2 in RPMI 1640 Medium supplemented with 10% fetal bovine serum. Cells were authenticated using the short tandem repeat (STR) assays. Mycoplasma test results were negative. Stable cell lines were established by lentivirus transduction, selected and maintained in medium containing 1 μg/mL puromycin (Beyotime Biotechnology).
Cells were seeded at a density of 5000 cells per well in 96-well assay plates and treated with test compounds following a 12-point 2-fold serial dilution or a 8-point 3-fold dilution, or 11-point 3-fold serial dilution. Three days later, cell viability was determined using the CellTiter-Glo assay kit (Promega) according to the manufacturer's instructions. The dose-response curves were determined and IC50 values were calculated using the GraphPad Prism software following a nonlinear regression (least squares fit) method.

| SMILES | IC50 [µM] |
| --- | --- |
| NC(=O)C1CCN(c2cc(CN3CCN(C(=O)CCOCCOCCOCCOCCOCCNc4cccc5c4C(=O)N(C4CCC(=O)NC4=O)C5=O)CC3)ccc2NC(=O)c2coc(N3CCOCC3)n2)CC1 (stereo not shown) [CPD-489, N-(2-(4-carbamoylpiperidin-1-yl)-4-((4-(1-((2-(2,6-dioxopiperidin-3-yl)-1,3-dioxoisoindolin-4-yl)amino)-3,6,9,12,15-pentaoxaoctadecan-18-oyl)piperazin-1-yl)methyl)phenyl)-2-morpholinooxazole-4-carboxamide] | 0.141 |
| Cc1ncsc1-c1ccc(CNC(=O)[C@@H]2C[C@@H](O)CN2C(=O)[C@@H](NC(=O)CCC(=O)N2CCN(Cc3ccc(NC(=O)c4coc(N5CCOCC5)n4)c(N4CCC(C(N)=O)CC4)c3)CC2)C(C)(C)C)cc1 [CPD-490, N-(2-(4-carbamoylpiperidin-1-yl)-4-((4-(4-(((S)-1-((2S,4R)-4-hydroxy-2-((4-(4-methylthiazol-5-yl)benzyl)carbamoyl)pyrrolidin-1-yl)-3,3-dimethyl-1-oxobutan-2-yl)amino)-4-oxobutanoyl)piperazin-1-yl)methyl)phenyl)-2-morpholinooxazole-4-carboxamide] | 2.8 |
| Cc1ncsc1-c1ccc(CNC(=O)[C@@H]2C[C@@H](O)CN2C(=O)[C@@H](NC(=O)CCCCC(=O)N2CCN(Cc3ccc(NC(=O)c4coc(N5CCOCC5)n4)c(N4CCC(C(N)=O)CC4)c3)CC2)C(C)(C)C)cc1 [CPD-491, N-(2-(4-carbamoylpiperidin-1-yl)-4-((4-(6-(((S)-1-((2S,4R)-4-hydroxy-2-((4-(4-methylthiazol-5-yl)benzyl)carbamoyl)pyrrolidin-1-yl)-3,3-dimethyl-1-oxobutan-2-yl)amino)-6-oxohexanoyl)piperazin-1-yl)methyl)phenyl)-2-morpholinooxazole-4-carboxamide] | 3.7 |
| Cc1ncsc1-c1ccc(CNC(=O)[C@@H]2C[C@@H](O)CN2C(=O)[C@@H](NC(=O)CCCCCCC(=O)N2CCN(Cc3ccc(NC(=O)c4coc(N5CCOCC5)n4)c(N4CCC(C(N)=O)CC4)c3)CC2)C(C)(C)C)cc1 [CPD-492, N-(2-(4-carbamoylpiperidin-1-yl)-4-((4-(8-(((S)-1-((2S,4R)-4-hydroxy-2-((4-(4-methylthiazol-5-yl)benzyl)carbamoyl)pyrrolidin-1-yl)-3,3-dimethyl-1-oxobutan-2-yl)amino)-8-oxooctanoyl)piperazin-1-yl)methyl)phenyl)-2-morpholinooxazole-4-carboxamide] | 0.178 |
| Cc1ncsc1-c1ccc(CNC(=O)[C@@H]2C[C@@H](O)CN2C(=O)[C@@H](NC(=O)CCOCCC(=O)N2CCN(Cc3ccc(NC(=O)c4coc(N5CCOCC5)n4)c(N4CCC(C(N)=O)CC4)c3)CC2)C(C)(C)C)cc1 [CPD-494] | > 10 |
| Cc1ncsc1-c1ccc(CNC(=O)[C@@H]2C[C@@H](O)CN2C(=O)[C@@H](NC(=O)CCOCCOCCC(=O)N2CCN(Cc3ccc(NC(=O)c4coc(N5CCOCC5)n4)c(N4CCC(C(N)=O)CC4)c3)CC2)C(C)(C)C)cc1 [CPD-495] | > 10 |
| Cc1ncsc1-c1ccc(CNC(=O)[C@@H]2C[C@@H](O)CN2C(=O)[C@@H](NC(=O)CCOCCOCCOCCC(=O)N2CCN(Cc3ccc(NC(=O)c4coc(N5CCOCC5)n4)c(N4CCC(C(N)=O)CC4)c3)CC2)C(C)(C)C)cc1 [CPD-496, N-(2-(4-carbamoylpiperidin-1-yl)-4-((4-((S)-15-((2S,4R)-4-hydroxy-2-((4-(4-methylthiazol-5-yl)benzyl)carbamoyl)pyrrolidine-1-carbonyl)-16,16-dimethyl-13-oxo-4,7,10-trioxa-14-azaheptadecanoyl)piperazin-1-yl)methyl)phenyl)-2-morpholinooxazole-4-carboxamide] | 8.76 |
